The text below walks through data of patent US20250195681A1, “ANTI-GPC3 ANTIBODY DRUG CONJUGATE AND USE THEREOF” (DUALITY BIOLOGICS (SUZHOU) CO., LTD., priority 2022, published 2025).

As a reminder, the IC50 is the concentration at which inhibition is half-maximal.

The test system of assay [1] is advanced liver cancer. Particulars: patients with high GPC3 expression; cited from earlier work.
Assay [2] relates to advanced liver cancer. As to conditions: Phase II; cited from earlier work.
For another assay, the system named is NCI-N87. Nature of the assay: In vitro proliferation inhibition of small molecule payloads, CTG, 6 days (3.3). Type of assay: cell-based. Particulars: Homo sapiens, NCI-N87, 144 h, read-out: Abs-IC50 NCI-N87. As for the experimental part:
(§1) To detect the in vitro proliferation inhibitory activity of the drug compounds on NCI-N87 and Colo205 tumor cells. Cells were treated with different concentrations of the compounds in vitro, and after 6 days of culture, cell proliferation was detected using the CTG (CellTiter-Glo® Luminescent Cell Viability Assay, Promega, Cat. No.: G7558) reagent. The IC50 value was used to assess the in vitro activity of the compounds.
(§2) 1. Cell culture: NCI-N87 and Colo205 cells were cultured in RPMI-1640 medium containing 10% FBS.
(§3) 2. Cell preparation: NCI-N87 and Colo205 cells in the logarithmic growth phase were washed once with PBS, then digested with 2-3 mL of trypsin for 2-3 minutes. Once the cells were fully digested, 10-15 mL of cell culture medium was added to wash off the digested cells. The mixture was then centrifuged at 1000 rpm for 5 minutes, then the supernatant was discarded, and the cells were resuspended in 10-20 mL of cell culture medium to prepare a single-cell suspension.
(§4) 3. Cell plating: The single-cell suspension of NCI-N87 and Colo205 was mixed well, and the density of viable cells was adjusted to 6×10^4 cells/mL using a cell culture medium. The density-adjusted cell suspension was mixed well and added to a 96-well cell culture plate at 50 μL per well. The culture plate was incubated in an incubator for 18 hours (37° C., 5% CO2).
(§5) 4. Compound preparation: The compounds were dissolved in DMSO to prepare stock solutions with an initial concentration of 10 mM.
(§6) Eight concentrations of the small molecule compounds were prepared: 300, 100, 30, 10, 3, 1, 0.3, and 0.1 nM.
(§7) 5. Sample addition operation: The prepared samples at different concentrations were added to a culture plate, with two replicate wells for each sample. The culture plate was incubated in an incubator for 6 days (37° C., 5% CO2).
6. […]
(§8) 7. Plate reading operation: The 96-well cell culture plate was placed in a microplate reader, and the chemiluminescence was measured with the microplate reader.
(§9) Data analysis: The data were processed and analyzed using Microsoft Excel and GraphPad Prism 5.

The next assay concerns JIMT-1. Nature of the assay: In vitro proliferation inhibition of small molecule payloads, CTG, 6 days (3.2). In kind it is cell-based. As to conditions: Homo sapiens, JIMT-1, 144 h, read-out: JIMT-1 IC50. As for the experimental part:
To detect the in vitro proliferation inhibitory activity of the drug compounds on NCI-N87, JIMT-1, and MBA-MB-231 tumor cells. Cells were treated with different concentrations of the compounds in vitro, and after 6 days of culture, cell proliferation was detected using the CTG (CellTiter-Glo® Luminescent Cell Viability Assay, Promega, Cat. No.: G7558) reagent. The IC50 value was used to assess the in vitro activity of the compounds.
1. Cell culture: NCI-N87, JIMT-1, and MBA-MB-231 cells were cultured in RPMI-1640 medium containing 10% FBS.
2. Cell preparation: NCI-N87, JIMT-1, and MBA-MB-231 cells in the logarithmic growth phase were washed once with PBS, then digested with 2-3 mL of trypsin for 2-3 minutes. […]
as §8, §9
8. Data analysis: The cell viability was calculated using the formula: Vsample/Vvehicle control x 100% where Vsample represents the reading from the drug-treated group, and Vvehicle control represents the average value of the vehicle control group. GraphPad Prism software was used to plot the S-shaped dose-viability curve using a nonlinear regression model, and the IC50 values were calculated.

In another assay the test system is Colo205. Nature of the assay: In vitro proliferation inhibition of small molecule payloads, CTG, 6 days (3.3). Type of assay: cell-based. Particulars: Homo sapiens, COLO 205, 144 h, read-out: Abs-IC50 Colo205. As for the experimental part:
as §1, §2, §3, §4, §5, §6, §7
6. […]
as §8, §9

In the case of Codrituzumab, in the assay with advanced liver cancer [1], the “disease progression (in words)” value is “showed a trend of delayed disease progression”. In the assay with advanced liver cancer [2], the “survival (in words)” value is “did not demonstrate a statistically significant improvement in survival”.
On to `CC[C@@]1(O)C(=O)OCc2c1cc1n(c2=O)Cc2c-1nc1cc(F)c(C)c3c1c2[C@@H](NC(=O)CCO)CC3` [Preparation Example 8], for which, in the assay with NCI-N87, the half-inhibitory concentration (IC50) turned out to be 15.1 nM.
Take `CC[C@@]1(O)C(=O)OCc2c1cc1n(c2=O)Cc2c-1nc1cc(F)c(C)c3c1c2[C@@H](NC(=O)CCN)CC3` [Reference Example 1]: the IC50 in the assay with JIMT-1 worked out at 36.2 nM.
Take `CC[C@@]1(O)C(=O)OCc2c1cc1n(c2=O)Cc2c-1nc1cc(F)c(C)c3c1c2[C@@H](NC(=O)CO)CC3` [Preparation Example 9, DXd, reference compound]: the results for the 50% inhibitory concentration (IC50) in the assay on Colo205 and in the assay with NCI-N87 were 294 nM and 13.9 nM, respectively.
